Literature values as cited in patent US20260191206A1, “SYNERGISTIC INSECTICIDAL COMPOSITION COMPRISING PHTHALIMIDE COMPOUNDS AND THE USE THEREOF” (COUNCIL OF SCIENTIFIC AND INDUSTRIAL RESEARCH AN INDIAN …, priority 2022, published 2026).

Tested on: trehalose 6-phosphate phosphatase
Conditions: Cross et al, Sci Rep 9, 16165 (2019)

O=C1c2ccccc2C(=O)N1Sc1ccccc1 [NPP, N-(Phenylthio) phthalimide]
inhibition of trehalose 6-phosphate phosphatase: inhibit
